Data reported in patent US20230084144A1, “THERAPEUTIC COMBINATIONS OF DRUGS AND METHODS OF USING THEM” (ConSynance Therapeutics, Inc., priority 2020, published 2023).
Like-named read-outs stand apart in the source and are kept apart here.

Tests used:
[1] = target: T1, Transporter, Dopamine (DAT) (Homo sapiens, UniProt Q01959); assay: Radioligand binding, Transporter, Dopamine (DAT) (Eurofin Discovery 220320); settings: for DAT, %inhibition 10 nM: 10 nM compound; for DAT, %inhibition 100 nM / inhibition at 0.1 µM: 100 nM compound
T1 construct: host or cells: CHO-S cells

[2] = target: T2, Transporter, Norepinephrine (NET) (Homo sapiens, UniProt P23975); assay: Radioligand binding, Transporter, Norepinephrine (NET) (Eurofin Discovery 204410)
T2 construct: host or cells: MDCK cells

[3] = target: T3, MCHR1 (Homo sapiens, UniProt Q99705); assay: MCHR1 pharmacology of the N-acetyl metabolite
Text: By substituting the hydrogens with deuterium on the carbon(s) adjacent to the nitrogen which is acetylated (see for example, Examples 5 to 7), acetylation process can be slowed down to reduce the formation of this metabolite.
Target sequence in this assay (Q99705 whole entry, species assumed): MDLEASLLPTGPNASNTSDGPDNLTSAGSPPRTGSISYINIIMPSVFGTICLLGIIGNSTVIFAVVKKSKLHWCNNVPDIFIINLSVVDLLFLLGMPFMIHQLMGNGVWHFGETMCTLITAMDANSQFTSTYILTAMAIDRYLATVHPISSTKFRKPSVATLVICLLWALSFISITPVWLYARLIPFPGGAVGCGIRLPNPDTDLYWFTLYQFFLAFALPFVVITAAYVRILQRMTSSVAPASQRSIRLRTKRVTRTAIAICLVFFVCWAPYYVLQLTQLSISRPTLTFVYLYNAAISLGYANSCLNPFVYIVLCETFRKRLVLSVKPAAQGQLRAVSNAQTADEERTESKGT

[4] = target: T4, DAT (Homo sapiens, UniProt Q01959); settings: cited from earlier work
T4 construct: from tissue; host or cells: striatum of healthy male volunteers, in vivo PET

[5] = target: NET (Homo sapiens, UniProt P23975); settings: at efficacious doses; cited from earlier work
[6] = target: T1, Transporter, Dopamine (DAT); settings: radioligand, Historical Values; cited from earlier work
[7] = target: T2, Transporter, Norepinephrine (NET); settings: radioligand, Historical Values; cited from earlier work
[8] = system: PWS patients; settings: standard mg/day dosing, cited from earlier work
[9] = target: T3, MCHR1; design: host or cells: CHO-K1 cells; settings: radioligand, Historical Values; cited from earlier work
Target sequence in this assay (Q99705 whole entry): as the sequence (Q99705 whole entry, species assumed) above

T4 sequence (Q01959 whole entry): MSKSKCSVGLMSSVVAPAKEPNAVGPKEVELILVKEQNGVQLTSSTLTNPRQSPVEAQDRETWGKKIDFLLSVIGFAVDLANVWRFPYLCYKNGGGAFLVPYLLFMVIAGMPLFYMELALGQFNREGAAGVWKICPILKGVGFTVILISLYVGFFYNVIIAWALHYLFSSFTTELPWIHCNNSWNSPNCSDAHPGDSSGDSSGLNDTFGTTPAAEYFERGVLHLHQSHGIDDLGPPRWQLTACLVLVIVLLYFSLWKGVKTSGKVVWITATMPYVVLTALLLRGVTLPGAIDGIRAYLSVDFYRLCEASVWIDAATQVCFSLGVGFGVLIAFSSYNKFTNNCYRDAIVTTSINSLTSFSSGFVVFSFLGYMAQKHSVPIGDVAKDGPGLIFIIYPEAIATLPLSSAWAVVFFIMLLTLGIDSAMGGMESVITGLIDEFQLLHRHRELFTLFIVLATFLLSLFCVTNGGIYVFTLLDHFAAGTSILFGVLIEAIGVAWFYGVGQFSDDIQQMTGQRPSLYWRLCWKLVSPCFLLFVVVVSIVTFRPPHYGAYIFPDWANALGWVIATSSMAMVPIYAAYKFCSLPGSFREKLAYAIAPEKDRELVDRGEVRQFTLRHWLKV
T1 sequence (Q01959 whole entry): as above
Chain of NET (P23975 whole entry): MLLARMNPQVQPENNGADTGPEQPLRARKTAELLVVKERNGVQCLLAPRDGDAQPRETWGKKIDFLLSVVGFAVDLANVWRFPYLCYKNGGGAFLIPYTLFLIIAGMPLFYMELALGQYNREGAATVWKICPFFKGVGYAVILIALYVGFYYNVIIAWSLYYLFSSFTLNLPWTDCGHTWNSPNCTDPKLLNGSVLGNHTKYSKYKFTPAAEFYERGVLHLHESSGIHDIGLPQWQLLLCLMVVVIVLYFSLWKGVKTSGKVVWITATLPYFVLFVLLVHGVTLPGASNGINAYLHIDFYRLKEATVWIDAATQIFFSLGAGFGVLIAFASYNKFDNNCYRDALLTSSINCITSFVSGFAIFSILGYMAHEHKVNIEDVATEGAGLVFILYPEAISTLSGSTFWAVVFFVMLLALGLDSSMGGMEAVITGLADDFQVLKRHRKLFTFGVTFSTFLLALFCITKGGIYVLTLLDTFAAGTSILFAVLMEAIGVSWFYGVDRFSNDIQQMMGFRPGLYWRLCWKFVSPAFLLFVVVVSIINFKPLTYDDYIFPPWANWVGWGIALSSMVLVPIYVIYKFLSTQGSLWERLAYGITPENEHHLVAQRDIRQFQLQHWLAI
T2 sequence (P23975 whole entry): as above

Molecule: [2H]C1([2H])NC([2H])([2H])C([2H])(c2ccc(Cl)c(Cl)c2)c2ccc(-c3ccc4ncnn4c3)cc21 (single isomer, unassigned) [Compound 8A, 7-([1,2,4]triazolo[1,5-a]pyridin-6-yl)-4-(3,4-dichlorophenyl)-1,2,3,4-tetrahydroisoquinoline-1,1,3,3,4-d5]
- DAT, %inhibition 10 nM [1]: 44%

Molecule: [2H]C1([2H])NC([2H])([2H])C([2H])(c2ccc(Cl)c(Cl)c2)c2ccc(-c3ccc4ncnn4c3)cc21 (single isomer, unassigned) [Compound 8B, 7-([1,2,4]triazolo[1,5-a]pyridin-6-yl)-4-(3,4-dichlorophenyl)-1,2,3,4-tetrahydroisoquinoline-1,1,3,3,4-d5]
- NET, %inhibition 10 nM ([2]; 10 nM compound): 37%
- NET, %inhibition 100 nM ([2]; 100 nM compound): 71%
- DAT, %inhibition 10 nM [1]: 4%
- DAT, %inhibition 100 nM [1]: 75%

Molecule: [2H]C1([2H])NCC(c2ccc(Cl)c(Cl)c2)c2ccc(-c3ccc4ncnn4c3)cc21 (single isomer, unassigned) [Compound 12A, 7-([1,2,4]triazolo[1,5-a]pyridin-6-yl)-4-(3,4-dichlorophenyl)-1,2,3,4-tetrahydroisoquinoline-1,1-d2]
- DAT, %inhibition 10 nM [1]: 53%
- inhibition at 0.1 µM [1]: 92%

Molecule: [2H]C1([2H])NCC(c2ccc(Cl)c(Cl)c2)c2ccc(-c3ccc4ncnn4c3)cc21 (single isomer, unassigned) [Compound 12B, 7-([1,2,4]triazolo[1,5-a]pyridin-6-yl)-4-(3,4-dichlorophenyl)-1,2,3,4-tetrahydroisoquinoline-1,1-d2]
- NET, %inhibition 10 nM ([2]; 10 nM compound): 44%
- NET, %inhibition 100 nM ([2]; 100 nM compound): 74%
- DAT, %inhibition 10 nM [1]: 0%
- DAT, %inhibition 100 nM [1]: 74%

Molecule: [2H]C1([2H])NCc2cc(-c3ccc4ncnn4c3)ccc2C1([2H])c1ccc(Cl)c(Cl)c1 (single isomer, unassigned) [Compound 16A, 7-([1,2,4]triazolo[1,5-a]pyridin-6-yl)-4-(3,4-dichlorophenyl)-1,2,3,4-tetrahydroisoquinoline-3,3,4-d3]
- inhibition at 0.01 µM ([2]; 10 nM compound): 38%
- inhibition at 0.1 µM ([2]; 100 nM compound): 83%
- DAT, %inhibition 10 nM [1]: 47%
- inhibition at 0.1 µM [1]: 91%

Molecule: [2H]C1([2H])NCc2cc(-c3ccc4ncnn4c3)ccc2C1([2H])c1ccc(Cl)c(Cl)c1 (single isomer, unassigned) [Compound 16B, 7-([1,2,4]triazolo[1,5-a]pyridin-6-yl)-4-(3,4-dichlorophenyl)-1,2,3,4-tetrahydroisoquinoline-3,3,4-d3]
- DAT, %inhibition 10 nM [1]: -2%

Molecule: CC(=O)N1CCc2c(c3ccc(-n4ccc(OCc5ccc(F)cn5)cc4=O)cc3n2C)C1 [1-(2-acetyl-5-methyl-2,3,4,5-tetrahydro-1H-pyrido[4,3-b]indol-7-yl)-4-((5-fluoropyridin-2-yl)methoxy)pyridin-2(1H)-one]
- contribution to MCHR1 antagonism [3]: does not contribute to the pharmacology of MCHR1 antagonism

Molecule: CC(NC(C)(C)C)C(=O)c1cccc(Cl)c1 (centres unmarked) [Bupropion]
- Lowest Occupancy DAT ([4]; at efficacious doses): 14% (Bupropion)
- DAT occupancy ([4]; at various approved doses): 14-26%

Molecule: COC(=O)C(c1ccccc1)C1CCCCN1 (centres unmarked) [Methylphenidate]
- Highest Occupancy DAT ([4]; at efficacious doses): 74% (Methylphenidate)
- DAT occupancy ([4]; at various approved doses): 40-74%

Molecule: COc1ccc(C(CN(C)C)C2(O)CCCCC2)cc1 (centres unmarked) [Venlafaxine]
- Highest Occupancy NET [5]: 61% (Venlafaxine)
- Lowest Occupancy NET [5]: 8% (Venlafaxine)
- NET occupancies [5]: 8-61%

Molecule: COC(=O)[C@H]1[C@@H](c2ccc(I)cc2)C[C@@H]2CC[C@H]1N2C [[^125I] RTI-55]
- Kd [6]: 0.58 nM
- Kd [7]: 24 nM

Molecule: NC(=O)C[S+]([O-])C(c1ccccc1)c1ccccc1 (centres unmarked) [modafinil]
- DAT occupancy ([4]; at various approved doses): 51-57%

Molecule: CCOC[C@@H]1[C@@H](c2ccc(Cl)c(Cl)c2)C[C@@H]2CC[C@H]1N2C [tesofensine]
- DAT occupancy ([4]; suggested as the optimal weight loss doses): 50%-70%
- hyperphagia ([8]; PWS patients with the appropriate plasma drug level): controlled completely
- patients with plasma drug levels exceeding the safety levels who discontinued due to adverse events ([8]; PWS patients): ⅔
- efficacy ([8]; lowering the dosing for all patients): no efficacy

Molecule: [^125I] Tyr-S36057
- Kd [9]: 0.1 nM
